{"source": "patent US12447137B2", "about": "“Composition for prevention, amelioration, or treatment of cancer” (EWHA UNIVERSITY—INDUSTRY COLLABORATION FOUNDATION, priority 2019, dated 2025)", "key": {"[1]": {"system": "cleaved-PARP, Bcl-2 and Cyclin D1 proteins", "assay": "Apoptosis marker Western blot in MDA-MB-231 cell line", "assay_type": "cell-based, human", "conditions": "FIG. 5"}, "[2]": {"system": "cleaved-PARP, Bcl-2 and Cyclin D1 proteins", "assay": "Apoptosis marker Western blot in 4T1 cell line", "assay_type": "cell-based, mouse", "conditions": "FIG. 5"}, "[3]": {"system": "secreted MMP2 and MMP9", "assay": "Secreted MMP2 and MMP9 levels, TGF-β1-treated BT549 cells", "assay_type": "cell-based, human", "conditions": "BT549, with TGF-β1; FIG. 7B", "method": "(§1) The culture medium of the breast cancer cell line of Experimental Method 1 was replaced with a serum-free medium. Then, the cells were treated with 2 ng/mL of TGF-β1 and the compound of Preparation Example 6 and cultured for 20 to 24 hours. Thereafter, as described in Experimental Method 3, the expression level of the protein was measured using an antibody specific for the EMT-related protein."}, "[4]": {"system": "EMT protein markers α-SMA, Vimentin, ZEB-1 and Slug", "assay": "EMT protein marker Western blot, TGF-β1-treated 4T1 cells", "assay_type": "cell-based, mouse", "conditions": "4T1, with TGF-β1; FIG. 7A", "method": "as §1"}, "[5]": {"system": "p-AMPK (Thr172)", "assay": "AMPK activation by p-AMPK (Thr172) Western blot in BT549 cells", "assay_type": "cell-based, human", "conditions": "BT549, 10 μM, 24 hours; FIG. 3B", "method": "[3-1] The breast cancer cell line of Experimental Method 1 above was treated with the compound of Production Example 6 at a concentration of 0 to 30 μM, and then cultured for 24 hours. Thereafter, the cells were harvested and lysed in RIPA buffer, and the protein was electrophoresed by SDS-PAGE, and then the expression level of the protein was analyzed using antibodies specific for AMPK and phospho-AMPK (Thr172). GAPDH or β-actin was used as a loading control for protein quantification.\n[3-2] The three breast cancer cell lines (4T1, BT549, and MDA-MB-231) of Experimental Method 1 were treated with each of the compound of Production Example 6 and 13 compounds, including the compounds of Production Examples 1 to 5 and 8 to 15 having a similar structure (YE-01, 02, 03, 04, 05, 08, 09, 10, 11, 12, 13, 14 and 15), at a concentration of 10 μM, and then cultured for 24 hours. […] Thereafter, the cells were harvested and lysed in RIPA buffer, and the protein was electrophoresed by SDS-PAGE, and then the expression level of the protein was analyzed using antibodies specific for AMPK and phospho-AMPK (Thr172). GAPDH or β-actin was used as a loading control for protein quantification."}, "[6]": {"system": "EMT protein markers α-SMA, Vimentin, ZEB-1 and Slug", "assay": "EMT protein marker Western blot, TGF-β1-treated BT549 cells", "assay_type": "cell-based, human", "conditions": "BT549, with TGF-β1; FIG. 7A", "method": "as §1"}, "[7]": {"system": "AMPK", "assay": "Cellular thermal shift assay (CTSA) of AMPK protein, Western blot", "assay_type": "binding, human", "conditions": "cells treated with compound; AMPK protein alone Tm 50° C.; FIG. 1", "method": "In order to examine whether or not the compound of Production Example 6 and 13 compounds, including the compounds of Production Examples 1 to 5 and 8 to 15 having a similar structure (YE-01, 02, 03, 04, 05, 08, 09, 10, 11, 12, 13, 14 and 15), bind to the AMP binding site of AMPK, cellular thermal shift assay (CTSA) was performed. Specifically, the cultured human breast cancer-derived cell line (BT549 or MDA-MB-231 cell line) was detached from the culture dish using trypsin. The detached cell line was diluted in PBS, and the same amount of the cells were dispensed in each tube for PCR and heated for 3 minutes at a temperature of room temperature to 65° C. After completion of the heating, protein was isolated from the cell line using liquid nitrogen, and Western blot analysis was performed to confirm the temperature at which AMPK would be denatured by heat."}}, "data": [{"compound": "COc1ccc(OC)c(/C=C/C(=O)c2ccc(NS(=O)(=O)c3ccc(Cl)cc3)cc2)c1", "note": "[Production Example 6, (E)-4-chloro-N-(4-(3-(2,5-dimethoxyphenyl)acryloyl)phenyl)benzenesulfonamide]", "values": [{"measurement": "level of Bcl-2 protein", "setting": "[1]", "result": "decreased"}, {"measurement": "level of Cyclin D1 protein", "setting": "[1]", "result": "decreased"}, {"measurement": "level of apoptosis marker cleaved-PARP protein", "setting": "[1]", "result": "increased"}, {"measurement": "level of Bcl-2 protein", "setting": "[2]", "result": "decreased"}, {"measurement": "level of Cyclin D1 protein", "setting": "[2]", "result": "decreased"}, {"measurement": "level of apoptosis marker cleaved-PARP protein", "setting": "[2]", "result": "increased"}, {"measurement": "level of secreted MMP2", "setting": "[3]", "result": "significantly decreased"}, {"measurement": "level of secreted MMP9", "setting": "[3]", "result": "significantly decreased"}, {"measurement": "Slug protein", "setting": "[4]", "result": "decreased"}, {"measurement": "Vimentin protein", "setting": "[4]", "result": "decreased"}, {"measurement": "ZEB-1 protein", "setting": "[4]", "result": "decreased"}, {"measurement": "α-SMA protein", "setting": "[4]", "result": "decreased"}, {"measurement": "p-AMPK level", "setting": "[5]", "result": "effectively increased"}, {"measurement": "Slug protein", "setting": "[6]", "result": "decreased"}, {"measurement": "Vimentin protein", "setting": "[6]", "result": "decreased"}, {"measurement": "ZEB-1 protein", "setting": "[6]", "result": "decreased"}, {"measurement": "α-SMA protein", "setting": "[6]", "result": "decreased"}, {"measurement": "Tm value of AMPK protein", "setting": "[7]", "result": 55, "unit": "°C"}]}]}
